Experimental data from the NIST ThermoML archive (doi:10.1016/j.jct.2006.07.025).
± gives the expanded uncertainty stated by the source.

Assay: xn = mol fraction of the nth substance listed
Details: for surface tension liquid-gas: Pendant drop shape; for mass density: 101 kPa, Liquid, Vibrating tube method

Cc1cc(C)cc(C)c1 [1,3,5-trimethylbenzene] + CCCCOC(C)=O
Details	mass density [kg/m3]	surface tension liquid-gas [mN/m]
298.15 K, x2 = 0	861.04 ± 0.18	28.09 ± 0.31
298.15 K, x2 = 0.0736	861.9 ± 0.17	–
298.15 K, x2 = 0.1009	862.23 ± 0.17	27.72 ± 0.31
298.15 K, x2 = 0.1521	862.84 ± 0.17	–
298.15 K, x2 = 0.2018	863.45 ± 0.17	27.34 ± 0.3
298.15 K, x2 = 0.2523	864.09 ± 0.16	–
298.15 K, x2 = 0.3003	864.7 ± 0.16	26.98 ± 0.3
298.15 K, x2 = 0.3499	865.36 ± 0.16	–
298.15 K, x2 = 0.4005	866.03 ± 0.16	26.61 ± 0.29
298.15 K, x2 = 0.45	866.72 ± 0.16	–
298.15 K, x2 = 0.4996	867.44 ± 0.15	26.27 ± 0.29
298.15 K, x2 = 0.5446	868.11 ± 0.15	–
298.15 K, x2 = 0.5979	868.92 ± 0.15	25.93 ± 0.29
298.15 K, x2 = 0.6503	869.76 ± 0.15	–
298.15 K, x2 = 0.7016	870.59 ± 0.15	25.62 ± 0.28
298.15 K, x2 = 0.7504	871.44 ± 0.15	–
298.15 K, x2 = 0.8005	872.32 ± 0.14	25.36 ± 0.28
298.15 K, x2 = 0.846	873.17 ± 0.14	–
298.15 K, x2 = 0.8981	874.13 ± 0.14	25.12 ± 0.28
298.15 K, x2 = 0.9333	874.87 ± 0.14	–
303.15 K, x2 = 0	856.96 ± 0.18	27.67 ± 0.31
303.15 K, x2 = 0.1005	858.04 ± 0.17	27.29 ± 0.3
303.15 K, x2 = 0.1997	859.17 ± 0.17	26.9 ± 0.3
303.15 K, x2 = 0.3	860.37 ± 0.16	26.53 ± 0.29
303.15 K, x2 = 0.3996	861.61 ± 0.16	26.14 ± 0.29
303.15 K, x2 = 0.5007	862.98 ± 0.16	25.79 ± 0.29
303.15 K, x2 = 0.6007	864.4 ± 0.15	25.45 ± 0.28
303.15 K, x2 = 0.7001	865.94 ± 0.15	25.12 ± 0.28
303.15 K, x2 = 0.7971	867.56 ± 0.15	24.85 ± 0.28
303.15 K, x2 = 0.9009	869.4 ± 0.14	24.6 ± 0.27
308.15 K, x2 = 0	852.84 ± 0.18	27.24 ± 0.3
308.15 K, x2 = 0.1002	853.8 ± 0.17	26.84 ± 0.3
308.15 K, x2 = 0.1986	854.82 ± 0.17	26.44 ± 0.29
308.15 K, x2 = 0.2997	855.94 ± 0.16	26.05 ± 0.29
308.15 K, x2 = 0.4003	857.12 ± 0.16	25.66 ± 0.29
308.15 K, x2 = 0.5007	858.39 ± 0.16	25.29 ± 0.28
308.15 K, x2 = 0.5997	859.71 ± 0.15	24.94 ± 0.28
308.15 K, x2 = 0.7005	861.18 ± 0.15	24.6 ± 0.27
308.15 K, x2 = 0.8	862.75 ± 0.15	24.32 ± 0.27
308.15 K, x2 = 0.9006	864.44 ± 0.14	24.07 ± 0.27
313.15 K, x2 = 0	848.74 ± 0.18	26.82 ± 0.3
313.15 K, x2 = 0.0498	849.12 ± 0.18	–
313.15 K, x2 = 0.0997	849.59 ± 0.17	26.39 ± 0.3
313.15 K, x2 = 0.15	850.08 ± 0.17	–
313.15 K, x2 = 0.2012	850.6 ± 0.17	25.97 ± 0.29
313.15 K, x2 = 0.2502	851.13 ± 0.17	–
313.15 K, x2 = 0.2996	851.64 ± 0.16	25.57 ± 0.29
313.15 K, x2 = 0.3507	852.22 ± 0.16	–
313.15 K, x2 = 0.3987	852.78 ± 0.16	25.16 ± 0.28
313.15 K, x2 = 0.4497	853.39 ± 0.16	–
313.15 K, x2 = 0.5008	854 ± 0.16	24.79 ± 0.28
313.15 K, x2 = 0.5499	854.62 ± 0.16	–
313.15 K, x2 = 0.5964	855.24 ± 0.15	24.42 ± 0.27
313.15 K, x2 = 0.6503	855.99 ± 0.15	–
313.15 K, x2 = 0.6995	856.68 ± 0.15	24.07 ± 0.27
313.15 K, x2 = 0.7499	857.4 ± 0.15	–
313.15 K, x2 = 0.7994	858.19 ± 0.15	23.79 ± 0.27
313.15 K, x2 = 0.8499	858.99 ± 0.15	–
313.15 K, x2 = 0.9	859.83 ± 0.14	23.54 ± 0.26
313.15 K, x2 = 0.9495	860.67 ± 0.14	–
